We go through nine molecules from patent publication US20050244916A1, “Methods for predicting protein activity based on identification of multidimensional signatures” (priority 2004, published 2005).

“Also recorded” adds a separate entry of the source.

The conditions of assay [1]: literature statement, organisms not given; cited from earlier work.
Assay [2] has as its system Staphylococcus aureus (ATCC 27217), Bacillus subtilis (ATCC 6633), Escherichia coli (strain ML-35). The experiment in a line: solid-phase radial diffusion antimicrobial assay, bacteria. The format is cell-based. Particulars: for antimicrobial activity compared with standard control defensin HNP-1: pH-specific, organism not specified (panel of bacteria and C. albicans); for antimicrobial activity against bacteria (zones of complete or partial inhibition): radial diffusion, pH 5.5 or pH 7.5, read after 24 h, S. aureus, B. subtilis, E. coli. The protocol: (§1) Standard radial diffusion assays were conducted using 10 μg of specified peptide: defensin HNP-1 (HNP); brazzein (BRZ); charybdotoxin (CTX); or metallothionein II (MTL). Recombinant brazzein reflecting the published 3-dimensional structure (1BRZ) as determined by nuclear magnetic resonance spectroscopy was kindly provided by Drs. J. L. Markley and F. M. Assadi-Porter, the University of Wisconsin 25. Charybdotoxin, metallothionein II, and defensin HNP-1 were obtained from commercial sources. Antimicrobial activity was assessed using a well-established solid-phase diffusion method as described by Tang et al., Infect. Immun. 70: 6524-6533 (2002). Assays included well characterized organisms: Staphylococcus aureus (ATCC 27217, Gram-positive coccus); Bacillus subtilis (ATCC 6633, Gram-positive bacillus); Escherichia coli (strain ML-35, Gram-negative bacillus); and Candida albicans (ATCC 36082, fungus). In brief, organisms were cultured to logarithmic phase and inoculated (106 colony forming units/ml) into buffered molecular-biology grade agarose at the indicated pH. Peptides resuspended in sterile deionized water were introduced into wells formed in the underlay, and incubated for 3 h at 37° C. Nutrient-containing overlay medium was then applied, and assays incubated at 37° C. or 30° C. for bacteria or fungi, respectively. After 24 h, zones of complete or partial inhibition were measured. All assays were repeated independently a minimum of two times at pH 5.5 (panels A-D) or pH 7.5 (panels E-H) to assess the influences of pH on peptide antimicrobial activities versus microorganisms. Histograms express mean (±standard deviation) zones of complete (blue) or incomplete (yellow) inhibition of growth. […] Note differences in scale.
(§2) These peptides were tested for antimicrobial activity against a panel of Gram-positive (Staphylococcus aureus, Bacillus subtilis) and Gram-negative (Escherichia coli) bacteria, and the fungus Candida albicans, using a well-established and sensitive in vitro assay [Antimicrobial activity was assessed using a well-established solid-phase diffusion method. Assays included well-characterized organisms: Staphylococcus aureus (ATCC 27217, Gram-positive); Bacillus subtilis (ATCC 6633, Gram-positive); Escherichia coli (strain ML-35, Gram-negative); and Candida albicans (ATCC 36082, fungus). In brief, organisms were cultured to logarithmic phase and inoculated at a density of 10^6 colony forming units/ml in buffered molecular grade agarose at the indicated pH. Five μg of peptide resuspended in sterile deionized water were introduced into wells formed in the underlay, and incubated for 3 h at 37° C. Nutrient-containing overlay medium was then applied, and assays incubated at 37° C. or 30° C. for bacteria or fungi, respectively. Defensin HNP-1 was tested in parallel as a standard control. After 24 h, zones of complete or partial inhibition were measured. All assays were repeated independently a minimum of two times. Tang et al., Infect. Immun. 70:6524 (2002) for detailed methodology.].

In assay [3] the test system is Candida albicans (ATCC 36082). Description: solid-phase radial diffusion antimicrobial assay, fungus. The format is cell-based. Particulars: pH 5.5 or pH 7.5, read after 24 h. The protocol: as §1
as §2, with “Nutrient-containing overlay medium was then applied, and assays incubated at 37° C. or 30° C. for bacteria or fungi, respectively. Defensin HNP-1 was tested in parallel as a standard control.” left out, “All assays were repeated independently a minimum of two times. Tang et al., Infect. Immun. 70:6524 (2002) for detailed methodology.].” left out

Regarding “IP-10/CXCL10: interferon-γ inducible protein-10 kDa”, the direct antimicrobial activity result in assay [1] is “direct antimicrobial activity”.
“ITAC/CXCL11: interferon-inducible T cell α chemoattractant”: the direct antimicrobial activity result in assay [1] is “direct antimicrobial activity”.
Consider “MIG/CXCL9: monokine induced by interferon-γ”, for which, in assay [1], the direct antimicrobial activity result is “direct antimicrobial activity”.
In the case of “PF-4: chemokine, human platelet factor-4”, in assay [1], the direct antimicrobial activity result is listed as “direct antimicrobial activity”.
With “RANTES: β-chemokine, releasable upon activation normal T cell expressed/secreted”, the direct antimicrobial activity result in assay [1] is recorded as “direct antimicrobial activity”.
In the case of “brazzein: sweetener protein from Pentadiplandra (J'Oblie berry); recombinant, structure 1BRZ (QDKCKKVYENYPVSKCQLANQCNYDCKLDKHARSGECFYDEKRNLQCICDYCEY; UniProt P56552 1-54, looked up)”, in assay [2], the “antimicrobial activity compared with standard control defensin HNP-1” value is on record as “in some conditions exceeded that of HNP-1” and the “antimicrobial activity against bacteria (zones of complete or partial inhibition)” value was “direct antimicrobial activities; also recorded: previously unrecognized antimicrobial activity; also recorded: exerted direct antimicrobial activity”. Further, the “antimicrobial activity against C. albicans (zones of complete or partial inhibition)” value in assay [3] is given as “direct antimicrobial activities; also recorded: previously unrecognized antimicrobial activity; also recorded: exerted direct antimicrobial activity”.
Turning to charybdotoxin, in assay [2], the “antimicrobial activity compared with standard control defensin HNP-1” value was “in some conditions exceeded that of HNP-1” and the “antimicrobial activity against bacteria (zones of complete or partial inhibition)” value is “direct antimicrobial activities; also recorded: previously unrecognized antimicrobial activity; also recorded: exerted direct antimicrobial activity”. Further, in assay [3], the “antimicrobial activity against C. albicans (zones of complete or partial inhibition)” value is reported as “direct antimicrobial activities; also recorded: previously unrecognized antimicrobial activity; also recorded: exerted direct antimicrobial activity”.
For “metallothionein II: prototype metallothionein (Saccharomyces, 1AOO) lacking the γ-core motif; comparator predicted to lack antimicrobial activity (QNEGHECQCQCGSCKNNEQCQKSCSCPTGCNSDDKCPCGNKSEETKKSCCSGK; UniProt P0CX80 9-61, looked up)”, the “antimicrobial activity against bacteria (zones of complete or partial inhibition)” value is on record as “devoid of antimicrobial activity; also recorded: failed to exert antimicrobial activity” in assay [2] and “lacked antimicrobial activity” in assay [2] (listed as Metallothionein II). Also, the “antimicrobial activity against C. albicans (zones of complete or partial inhibition)” value was “devoid of antimicrobial activity; also recorded: failed to exert antimicrobial activity” in assay [3] and “lacked antimicrobial activity” in assay [3] (listed as Metallothionein II).

B1: PBP: chemokine, platelet basic peptide (protein, UniProt P02775 35-128, looked up)
Platelet basic protein: SSTKGQTKRNLAKGKEESLDSDLYAELRCMCIKTTSGIHPKNIQSLEVIGKGTHCNQVEVIATLKDGRKICLDPDAPRIKKIVQKKLAGDESAD
modifications: Platelet basic protein
notes: chemokine, platelet basic peptide
In the case of B1, the direct antimicrobial activity entry in assay [1] is “direct antimicrobial activity”.
